Values joined by “and” are separate entries in the source; they are usually repeats but may differ in a detail not shown here. Equal values may be shown once.
Key:
[1] = In vitro release of diclofenac from polyHEMA soft IOLs, impregnated for 7 days (Example 8); type: physicochemical; conditions: for Released quantities: polyHEMA IOL impregnated 7 days in saturated diclofenac; for Cumulative or total released quantities: polyHEMA IOL impregnated 7 days
Description: (§1) Initially, polyHEMA soft IOLs were impregnated by immersing them in a solution saturated with diclofenac (1.8 mg/ml, prepared by dissolving sodium diclofenac in a 0.9% solution of NaCl), at room temperature for 72 hours, carefully rinsed and then released into 1 ml of a 0.9% NaCl solution. After 6 hours, 24 hours and 96 hours, the diclofenac was measured in the release solution by HPLC, after which the IOL was rinsed and, for the intermediate durations, left to release in a new solution. It is understood that the released quantities correspond to the quantities previously absorbed and fixed in the IOLs The experiment of Example 7 was repeated leaving the IOLs in the saturated solution for 7 days instead of 3. The quantities released were checked after 6 hours and 24 hours.

[2] = Saturated diclofenac solution in 0.9% NaCl; type: physicochemical; conditions: sodium diclofenac dissolved in 0.9% NaCl solution
Description: as §1, with “In all the preceding examples the diclofenac was used at concentrations” for “The experiment”, “1.8 mg/ml or 1.5 mg/ml that is at or only slightly below” for “Example 7 was repeated leaving”, “saturation level.” for “IOLs in the saturated solution for 7 days instead of 3. The quantities released were checked after 6 hours and 24 hours.”

[3] = In vitro release of diclofenac from polyHEMA soft IOLs, impregnated for 72 hours (Example 7); type: physicochemical
Description: as §1, with “IOLs” for “IOLs The experiment of Example 7 was repeated leaving the IOLs in the saturated solution for 7 days instead of 3. The quantities released were checked after 6 hours and 24 hours.”

[4] = Diclofenac absorbed versus time in the impregnation solution after sterilization (Example 12); type: physicochemical; conditions: for Average amount of diclofenac released (absorbed) per IOL: average of three IOLs; for amount of diclofenac released (absorbed) per IOL: individual tests
Description: This example included tests on 21 IOLs to ascertain the time it takes for the amount of diclofenac absorbed by the IOL to reach its equilibrium. Each IOL was immersed in 5 ml of 1.5 mg/ml diclofenac solution in deionized water and then sterilized as is conventional, namely at 120° C. for a period of 30 minutes. The sterilized IOLs were then allowed to cool and left in the impregnation solution at room temperature for respective periods of 10 days, 20 days, 35 days, 41 days, 50 days and 65 days. At the end of each of these periods, three IOLs were removed and the quantity of diclofenac was then measured by forced release comprising cycles in a double boiler at 97° C. followed by rest periods until the diclofenac was entirely released from the IOLs.
The amounts of diclofenac released and corresponding to the amounts absorbed for the respective periods are expressed in μg.

[5] = tested on: postoperative inflammation of the eye; test: Anti-inflammatory effect of diclofenac-impregnated IOL after cataract operation in rabbits (Example 14); type: in vivo, rabbit; conditions: diclofenac-impregnated IOL versus same IOL without medicated product in opposite eye, three rabbits
Description: A test was carried out on three rabbits which were implanted with hydrophilic acrylic IOLs impregnated by autoclaving in a 1.5 mg/ml diclofenac solution at 120° C. for 30 minutes as described in Example 9 above. The object of this test was to determine the anti-inflammatory effect of diclofenac after a cataract operation. After extraction, the crystalline lens in each eye, the left eye was fitted with an impregnated IOL according to the invention and the right eye with the same kind of IOL with no medicated product therein. The eyes of the rabbit were examined by an operator on day one and microscopically by an ophtalmologist on day 7 and day 14 after the operation. The observations are set out in the following table.

[6] = In vitro kinetics of release of diclofenac at 35° C. over 14 days; type: physicochemical; conditions: release in 0.9% NaCl at 35° C.
Description: The following experiments were intended to determine more precisely the kinetics of release of diclofenac (in vitro experiments). As previously, the quantities released were measured by sampling the release medium (0.9% neutral NaCl solution) at intervals for measurement and renewing it for a new interval. The samples were taken after 6 hours and 24 hours and then every 24 hours for 14 days in total. To approximate the actual (i.e. in vivo) conditions of use more closely, release was effected at 35° C. The IOLs were impregnated by two different methods. […] A second experiment was carried out without sterilization, the IOLs remaining in the diclofenac solution for 24 hours. The quantities released were substantially the same, to within ±10%, and are set out in the table below in hours (H), days (D) and μg/ml.

[7] = Diclofenac fixed from lower-concentration solutions after prior sterilization (Example 13); type: physicochemical; conditions: pre-sterilized hydrophilic acrylic IOL; for quantity of diclofenac fixed per IOL: 4 days of immersion
Description: In these tests, the hydrophilic acrylic IOLs were first sterilized in their sealed containers in a 0.9% NaCl solution, in accordance with the standard sterilization procedure used for conventional IOLs. The solution contained no active ingredient of any kind. After sterilization at 121° C. for 30 minutes the containers were opened and the IOLs transferred to other containers which had previously been filled with a 0.9% NaCl solution including respectively 0.9 mg/ml, 0.45 mg/ml and 0.225 mg/ml of diclofenac. The IOLs remained immersed in the impregnation solution for 4 days in each case. Thereafter the absorbed quantities of diclofenac were driven out of the IOLs in double boilers at 97° C. as described above. […] In a second series of tests conducted with an impregnation solution of 0.9% NaCl with 0.9 mg/ml under the same conditions as in the first series, except that the residence in the impregnation solution was 49 days. The resulting average quantity of diclofenac fixed by the IOLs was 502 μg per implant.

[8] = Forced release of diclofenac after autoclaving and 10 days in the impregnation solution (Example 10); type: physicochemical
Description: Each of three hydrophilic acrylic implants of the type used in Example 9 was first introduced into the container with a 0.9% NaCl solution containing 1.5 mg/ml diclofenac solution. The container was then autoclaved at 122° C. for 30 minutes. After autoclaving, the IOLs were left in their impregnation solution for 10 days at ambient temperature. The procedure described in Example 9 was used to release the absorbed quantities of the diclofenac from the IOLs. The amounts released were respectively 83.57 μg, 101.66 μg, 84.16 μg or an average of 89.79 μg per implant.

[9] = tested on: inflammatory reactions of the eye; test: Clinical examination of rabbit eyes implanted with indomethacin PMMA lenses (Example 3); type: in vivo; conditions: PMMA IOL impregnated with indomethacin implanted in rabbit eye, opposite eye as control
[10] = tested on: inflammatory reactions of the eye; type: in vivo
Description: (§2) Samples of aqueous humor (approximately 150 μl) and plasma (approximately 2 ml) were taken at random intervals.

in vivo = conditions: rabbit
Description: as §2

For `O=C(O)Cc1ccccc1Nc1c(Cl)cccc1Cl` [diclofenac], the Released quantities ([1]; 6 hours) was 122 µg/mL, the Released quantities ([1]; 24 hours) was 109 µg/mL and the “Cumulative or total released quantities” value ([1]; 6 hours) was 122 µg/mL. The “Cumulative or total released quantities” value ([1]; 24 hours) was 231 µg/mL, the “concentration of solution saturated with diclofenac” value [2] was 1800 µg/mL and the Released quantities ([3]; polyHEMA IOL impregnated 72 hours at room temperature in saturated diclofenac, release into 1 ml 0.9% NaCl, 6 hours) was 127 µg/mL. The “Cumulative or total released quantities” value ([3]; polyHEMA IOL impregnated 72 hours, 6 hours) was 127 µg/mL, the “Cumulative or total released quantities” value ([3]; polyHEMA IOL impregnated 72 hours, 24 hours) was 222 µg/mL and the “Cumulative or total released quantities” value ([3]; polyHEMA IOL impregnated 72 hours, 96 hours) was 333 µg/mL. For the same compound, the Released quantities ([3]; polyHEMA IOL impregnated 72 hours, release into new 1 ml 0.9% NaCl, 24 hours) was 95 µg/mL, the Released quantities ([3]; polyHEMA IOL impregnated 72 hours, release into new 1 ml 0.9% NaCl, 96 hours) was 111 µg/mL and the “Average amount of diclofenac released (absorbed) per IOL” value (shortened to “Average amount … per IOL”) ([4]; Day 0) was 33.58 µg. For the same compound, the “Average amount … per IOL” value ([4]; Day 35) was 92.96 µg, the “Average amount … per IOL” value ([4]; Day 41) was 102.39 µg and the “Average amount … per IOL” value ([4]; Day 50) was 104.33 µg. The “Average amount … per IOL” value ([4]; Day 65) was 102.37 µg, the “amount of diclofenac released (absorbed) per IOL” value ([4]; sterilized at 120° C. for 30 minutes in 1.5 mg/ml diclofenac in deionized water, Day 0) was 36.01 µg and 31.13 µg and 33.59 µg and the “amount of diclofenac released (absorbed) per IOL” value ([4]; sterilized, then left in impregnation solution at room temperature, Day 10) was 83.57 µg and 101.66 µg and 84.16 µg. For the same compound, the “amount of diclofenac released (absorbed) per IOL” value ([4]; sterilized, then left in impregnation solution, Day 20) was 92.68 µg and 95.60 µg and 109.99 µg, the “amount of diclofenac released (absorbed) per IOL” value ([4]; sterilized, then left in impregnation solution, Day 35) was 86.65 µg and 100.06 µg and 92.18 µg and the “amount of diclofenac released (absorbed) per IOL” value ([4]; sterilized, then left in impregnation solution, Day 41) was 106.94 µg and 108.33 µg and 91.90 µg. The “amount of diclofenac released (absorbed) per IOL” value ([4]; sterilized, then left in impregnation solution, Day 50) was 85.29 µg and 114.80 µg and 112.90 µg, the “amount of diclofenac released (absorbed) per IOL” value ([4]; sterilized, then left in impregnation solution, Day 65) was 107.06 µg and 98.64 µg and 101.41 µg and the “anti-inflammatory effect, summary” value [5] was “real anti-inflammatory effect”. The “quantities released (Q)” value ([6]; IOL saturated with diclofenac, medium renewed each interval, 6 H) was 95 µg/mL, the “quantities released (Q)” value ([6]; medium renewed, 2 D) was 40 µg/mL and the “quantities released (Q)” value ([6]; medium renewed, 3 D) was 30 µg/mL. For the same compound, the “quantities released (Q)” value ([6]; medium renewed, 4 D) was 20 µg/mL, the “quantities released (Q)” value ([6]; medium renewed, 5 D) was 18 µg/mL and the “quantities released (Q)” value ([6]; medium renewed, 6 D) was 12 µg/mL. The “quantities released (Q)” value ([6]; medium renewed, 7 D) was 10 µg/mL, the “quantities released (Q)” value ([6]; medium renewed, 8 D) was 10 µg/mL and the “quantities released (Q)” value ([6]; medium renewed, 9 D) was 11 µg/mL. For the same compound, the “quantities released (Q)” value ([6]; medium renewed, 10 D) was 12 µg/mL, the “quantities released (Q)” value ([6]; medium renewed, 11 D) was 14 µg/mL and the “quantities released (Q)” value ([6]; medium renewed, 12 D) was 16 µg/mL. The “quantities released (Q)” value ([6]; medium renewed, 13 D) was 18 µg/mL, the “quantities released (Q)” value ([6]; medium renewed, 14 D) was 20 µg/mL and the “quantities released (Q)” value ([6]; medium renewed, 24 H) was 80 µg/mL. For the same compound, the “quantity of diclofenac fixed per IOL” value ([7]; 0.225 mg/ml diclofenac in 0.9% NaCl) was 70 µg, the “quantity of diclofenac fixed per IOL” value ([7]; 0.45 mg/ml diclofenac in 0.9% NaCl) was 148 µg and the “quantity of diclofenac fixed per IOL” value ([7]; 0.90 mg/ml diclofenac in 0.9% NaCl) was 276 µg. The “average quantity of diclofenac fixed per implant” value ([7]; 0.9 mg/ml diclofenac in 0.9% NaCl, 49 days in the impregnation solution) was 502 µg, the “average amount of diclofenac released per implant” value ([8]; as Example 10, average of three implants) was 89.79 µg and the “amounts of diclofenac released per implant” value ([8]; hydrophilic acrylic IOL autoclaved at 122° C. for 30 minutes in 1.5 mg/ml diclofenac in 0.9% NaCl, then 10 days in the solution at ambient temperature, individual implants) was 83.57 µg and 101.66 µg and 84.16 µg.
For `COc1ccc2c(c1)c(CC(=O)O)c(C)n2C(=O)c1ccc(Cl)cc1` [indomethacin], the “clinical examination: inflammatory reactions” value [9] was “inflammatory reactions had disappeared by the tenth day from implantation”, the “clinical observations: inflammatory reactions” value ([10]; polyHEMA lens impregnated with indomethacin, rabbit eye) was “inflammatory reactions disappeared at least as quickly as in Example 3” and the “clinical observations: tolerance of the lenses” value ([10]; rabbit, in vivo) was “well tolerated”. The concentration at 7 day (in vivo) was roughly 0.11 µg/mL.
